In patent US20220380347A1, “INHIBITORS OF CYSTEINE PROTEASES AND METHODS OF USE THEREOF” (Pardes Biosciences, Inc., priority 2020, published 2022):

How the values were obtained:
[1] = target: COVID-19 (nCoV-2019, SARS-CoV2) Mpro (Severe acute respiratory syndrome coronavirus 2, UniProt P0DTD1); assay: COVID-19 (nCoV-2019, SARS-CoV2) Mpro enzymatic assay; format: biochemical; conditions: 25 nM Mpro, 25 μM substrate; read-out: COVID-19 Mpro IC50
229E Mpro = 229E Mpro (Human coronavirus 229E, UniProt P0C6X1); assay: 229E Mpro enzymatic assay (standard methods, SARS-CoV2 Mpro assay given as exemplary); format: biochemical, human coronavirus (HCov) 229E; conditions: 229E Mpro EC50
How it was run: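 Run by standard methods, with the SARS-CoV-2 Mpro protocol given as the model: E. coli-expressed C-His6 protease at 25 nM and substrate at 25 μM (Km 13.5 μM). Buffer pH 7.3 with 5 mM TCEP and 0.1% BSA; % inhibition versus controls fitted to variable-slope log(inhibitor)-response for IC50.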

HCov OC43 = assay: HCoV OC43 cytopathic effect (CPE) assay, CellTiter Glo; format: cell-based, human coronavirus (HCov) OC43; conditions: Betacoronavirus 1, OC43, read-out: OC43 IC50 (uM) MEDIAN, median

229E Mpro, sequence (P0C6X1 2966-3267): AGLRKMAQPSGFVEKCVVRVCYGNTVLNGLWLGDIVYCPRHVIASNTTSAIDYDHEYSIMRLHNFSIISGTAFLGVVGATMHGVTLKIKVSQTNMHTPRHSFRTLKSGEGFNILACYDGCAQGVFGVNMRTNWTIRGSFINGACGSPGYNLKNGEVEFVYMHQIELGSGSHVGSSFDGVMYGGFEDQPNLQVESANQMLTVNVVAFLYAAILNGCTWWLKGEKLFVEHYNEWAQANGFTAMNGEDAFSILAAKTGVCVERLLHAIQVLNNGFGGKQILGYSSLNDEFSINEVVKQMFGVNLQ

`CO[C@@H]1C[C@H](C(=O)N(c2ccc(S(F)(F)(F)(F)F)cc2)C(C(=O)NCCN2CCN(C(=O)OC(C)(C)C)CC2)c2cccnc2)N(C#N)C1` (stereo partly drawn) [Compound 1267, tert-butyl4-[2-[[2-[N-[(2R,4R)-1-cyano-4-methoxy-pyrrolidine-2-carbonyl]-4-(pentafluoro-λ^6-sulfanyl)anilino]-2-(3-pyridyl)acetyl]amino]ethyl]piperazine-1-carboxylate] showed an IC50 [1] of 2 to 10 µM, an EC50 (229E Mpro) of less than 2 µM and an IC50 (HCov OC43) of less than 2 µM.

`N#CN1CCC(F)(F)C1C(=O)N(c1ccc(S(F)(F)(F)(F)F)cc1)C(C(=O)NC1CCOCC1)c1cncc(F)c1` (stereo not drawn) [Compound 1274, 1-cyano-3,3-difluoro-N-[1-(5-fluoro-3-pyridyl)-2-oxo-2-(tetrahydropyran-4-ylamino)ethyl]-N-[4-(pentafluoro-λ^6-sulfanyl)phenyl]pyrrolidine-2-carboxamide] showed an IC50 [1] of less than 2 µM, an EC50 (229E Mpro) of less than 2 µM and an IC50 (HCov OC43) of less than 2 µM.

Work on `N#CC1(C(=O)N(c2ccc(S(F)(F)(F)(F)F)cc2)C(C(=O)NC2CCC(F)(F)CC2)c2cncc(F)c2)CC1` (stereo not drawn) [Compound 1289, 1-cyano-N-[2-[(4,4-difluorocyclohexyl)amino]-1-(5-fluoro-3-pyridyl)-2-oxo-ethyl]-N-[4-(pentafluoro-λ^6-sulfanyl)phenyl]cyclopropanecarboxamide] yielded an IC50 [1] greater than 30 µM, an EC50 (229E Mpro) greater than 30 µM and an IC50 (HCov OC43) greater than 30 µM.

Work on `[2H]C(C(=O)NC1CCOCC1)(c1cnccn1)N(C(=O)[C@H]1C[C@@](C)(O)CN1C#N)c1ccc(S(F)(F)(F)(F)F)cc1` (stereo partly drawn) [Compound 1305, (2R,4R)-1-cyano-N-[1-deuterio-2-oxo-1-pyrazin-2-yl-2-(tetrahydropyran-4-ylamino)ethyl]-4-hydroxy-4-methyl-N-[4-(pentafluoro-λ^6-sulfanyl)phenyl]pyrrolidine-2-carboxamide] yielded an IC50 [1] greater than 30 µM, an EC50 (229E Mpro) greater than 30 µM and an IC50 (HCov OC43) greater than 30 µM.

In the case of `CO[C@@H]1C[C@H](C(=O)N(c2ccc(S(F)(F)(F)(F)F)cc2)C(C(=O)NC2CCC(F)(F)CC2)c2nncn2C(C)C)N(C#N)C1` (stereo partly drawn) [Compound 1307, (2R,4R)-1-cyano-N-[2-[(4,4-difluorocyclohexyl)amino]-1-(4-isopropyl-1,2,4-triazol-3-yl)-2-oxo-ethyl]-4-methoxy-N-[4-(pentafluoro-λ6-sulfanyl)phenyl]pyrrolidine-2-carboxamide], the IC50 [1] is reported as greater than 30 µM, the EC50 (229E Mpro) is reported as greater than 30 µM and the IC50 (HCov OC43) is reported as greater than 30 µM.

`CO[C@@H]1C[C@H](C(=O)N(c2ccc(S(F)(F)(F)(F)F)cc2)C(C(=O)NC2CCC(F)(F)CC2)c2cncs2)N(C#N)C1` (stereo partly drawn) [Compound 1311, (2R,4R)-1-cyano-N-[2-[(4,4-difluorocyclohexyl)amino]-2-oxo-1-thiazol-5-yl-ethyl]-4-methoxy-N-[4-(pentafluoro-λ^6-sulfanyl)phenyl]pyrrolidine-2-carboxamide] showed an IC50 [1] of less than 2 µM, an EC50 (229E Mpro) of less than 2 µM and an IC50 (HCov OC43) of less than 2 µM.

Molecule `N#CN1CCOC[C@@H]1C(=O)N(c1ccc(S(F)(F)(F)(F)F)cc1)C(C(=O)NC1CCC(F)(F)CC1)c1cccnc1` (stereo partly drawn) [Compound 1315, (3R)-4-cyano-N-[2-[(4,4-difluorocyclohexyl)amino]-2-oxo-1-(3-pyridyl)ethyl]-N-[4-(pentafluoro-λ6-sulfanyl)phenyl]morpholine-3-carboxamide] has an IC50 [1] of less than 2 µM, an EC50 (229E Mpro) of less than 2 µM and an IC50 (HCov OC43) of less than 2 µM.

Molecule `CO[C@@H]1C[C@H](C(=O)N(c2ccc(S(F)(F)(F)(F)F)cc2)C(C(=O)NC2CCC(F)(F)CC2)c2ccnnc2)N(C#N)C1` (stereo partly drawn) [Compound 1320, (2R,4R)-1-cyano-N-[2-[(4,4-difluorocyclohexyl)amino]-2-oxo-1-pyridazin-4-yl-ethyl]-4-methoxy-N-[4-(pentafluoro-λ6-sulfanyl)phenyl]pyrrolidine-2-carboxamide] has an IC50 [1] greater than 30 µM, an EC50 (229E Mpro) greater than 30 µM and an IC50 (HCov OC43) greater than 30 µM.
